# From patent publication US7893056B2, “Peptide deformylase inhibitors” (GlaxoSmithKline LLC, priority 2007, dated 2011)
# “And” between values parts separate entries of the source, which are not always exact repeats. Equal entries are not always repeated.
# Columns and labels:
# Assay in all cases: Antimicrobial activity assay, broth microdilution MIC
# Format in all cases: cell-based
# [1] = test system: Staphylococcus aureus WCUH29; settings: others: individual runs; for MIC: Staphylococcus aureus, WCUH29, Examples 24 and 63: median of all results obtained, read-out: MIC, S. aureus WCUH29
# Experimental: (§1) Whole-cell antimicrobial activity was determined by broth microdilution using the Clinical and Laboratory Standards Institute (CLSI, formerly NCCLS) recommended methodology (NCCLS Document M7-A6, “Methods for Dilution Susceptibility Tests for Bacteria that Grow Aerobically—Approved Standard Sixth Edition”, 2003). Compounds were tested in serial two-fold dilutions ranging from 64 to 0.06 μg/mL. A panel of 12 strains was evaluated in the assay. This panel consisted of the following laboratory strains: Staphylococcus aureus Oxford, Staphylococcus aureus WCUH29, Enterococcus faecalis 1, Enterococcus faecalis 7, Haemophilus influenzae Q1, Haemophilus influenzae NEMC1, Moraxella catarrhalis 1502, Streptococcus pneumoniae 1629, Streptococcus pneumoniae N1387, Streptococcus pneumoniae Ery2, Escherichia coli 7623 (AcrABEFD+) and Escherichia coli 120 (AcrAB−). The minimum inhibitory concentration (MIC) was determined as the lowest concentration of compound that inhibited visible growth. A mirror reader was used to assist in determining the MIC endpoint.
# [2] = test system: Moraxella catarrhalis 1502; settings: others: individual runs; for MIC: Moraxella catarrhalis, 1502, Examples 24 and 63: median of all results obtained
# Experimental: as §1
# [3] = test system: Streptococcus pneumoniae Ery2; settings: Examples 24 and 63: median of all results obtained, others: individual runs, read-out: MIC, S. pneumoniae ERY2
# Experimental: as §1
# [4] = test system: Streptococcus pneumoniae 1629; settings: Examples 24 and 63: median of all results obtained, others: individual runs, read-out: MIC, S. pneumoniae 1629
# Experimental: as §1
# [5] = test system: Enterococcus faecalis 7; settings: others: individual runs; for MIC, E. faecalis 7: Examples 24 and 63: median of all results obtained; for MIC: Enterococcus faecalis, 7, Examples 24 and 63: median of all results obtained, read-out: MIC, E. faecalis 7
# Experimental: as §1
# [6] = test system: Streptococcus pneumoniae N1387; settings: Examples 24 and 63: median of all results obtained, others: individual runs, read-out: MIC, S. pneumoniae N1387
# Experimental: as §1
# [7] = test system: Staphylococcus aureus Oxford; settings: Examples 24 and 63: median of all results obtained, others: individual runs; for MIC: Staphylococcus aureus, read-out: MIC, S. aureus Oxford
# Experimental: as §1
# [8] = test system: Escherichia coli 7623 (AcrABEFD+); settings: Examples 24 and 63: median of all results obtained; others: individual runs
# Experimental: as §1
# [9] = test system: Enterococcus faecalis 1; settings: others: individual runs; for MIC: Enterococcus faecalis, 1, Examples 24 and 63: median of all results obtained, read-out: MIC, E. faecalis I; for MIC, E. faecalis I: Examples 24 and 63: median of all results obtained
# Experimental: as §1
# [10] = Examples 24 and 63: median of all results obtained
Structure (SMILES),MIC [1] [µg/mL],MIC [2] [µg/mL],MIC [3] [µg/mL],MIC [4] [µg/mL],"MIC, E. faecalis 7 [5]","MIC, S. aureus WCUH29 [1, 10] [µg/mL]",MIC [6] [µg/mL],"MIC, S. aureus Oxford [7] [µg/mL]",MIC [7] [µg/mL],"MIC, E. coli 7623 AcrABEFD+ [8]",MIC [9] [µg/mL],"MIC, E. faecalis I [9]",MIC [5] [µg/mL],"MIC, M. catarrhalis 1502 [2, 10]"
"Cc1nc(NNC(=O)[C@H](CC2CCCC2)CN(O)C=O)c(F)c(N2CCN3CCOC[C@@H]3C2)n1 [Example 24, [(2R)-2-(Cyclopentylmethyl)-3-(2-{5-fluoro-6-[(9aS)-hexahydropyrazino[2,1-c][1,4]oxazin-8(1H)-yl]-2-methyl-4-pyrimidinyl}hydrazino)-3-oxopropyl]hydroxyformamide]",0.375,0.375,0.375,–,–,–,–,–,–,–,–,–,–,–
"Cc1nc(NNC(=O)[C@H](CC2CCCC2)CN(O)C=O)c(F)c(N2CCN(C)C3(CC3)C2)n1 [Example 275, ((2R)-2-(Cyclopentylmethyl)-3-{2-[5-fluoro-2-methyl-6-(4-methyl-4,7-diazaspiro[2.5]oct-7-yl)-4-pyrimidinyl]hydrazino}-3-oxopropyl)hydroxyformamide]",0.5,0.25,0.5,1,16 µg/mL and 64 µg/mL,1,0.5,4,2,4 µg/mL and 16 µg/mL,32,64 µg/mL,–,–
"Cc1nc(NNC(=O)[C@H](CC2CCCC2)CN(O)C=O)c(F)c(N2CCN(C)C[C@H]2C)n1 [Example 109, [(2R)-2-(Cyclopentylmethyl)-3-(2-{6-[(2R)-2,4-dimethyl-1-piperazinyl]-5-fluoro-2-methyl-4-pyrimidinyl}hydrazino)-3-oxopropyl]hydroxyformamide]",0.5,0.25,0.25,0.5,–,–,0.25,–,2,–,64,"64, >64 μg/ml",> 64,–
"CN1CCN(c2nc(Cl)nc(NNC(=O)[C@H](CC3CCCC3)CN(O)C=O)c2F)CC12CC2 [Example 172, [(2R)-3-{2-[2-Chloro-5-fluoro-6-(4-methyl-4,7-diazaspiro[2.5]oct-7-yl)-4-pyrimidinyl]hydrazino}-2-(cyclopentylmethyl)-3-oxopropyl]hydroxyformamide]",0.5,–,0.125 to 0.25,0.5,8 µg/mL and 64 µg/mL,–,0.125,2,1,4 µg/mL and 16 µg/mL,16,–,–,≤ 0.06 µg/mL and 0.125 µg/mL
"C[C@@H]1CN(C)CCN1c1nc(Cl)nc(NNC(=O)[C@H](CC2CCCC2)CN(O)C=O)c1F [Example 63, [(2R)-3-(2-{2-Chloro-6-[(2R)-2,4-dimethyl-1-piperazinyl]-5-fluoro-4-pyrimidinyl}hydrazino)-2-(cyclopentylmethyl)-3-oxopropyl]hydroxyformamide]",0.5,0.125,0.25,0.5,–,–,0.25,–,1,–,16,–,64,–
